Each structure is given as a SMILES string. pIC50: −log10 of the molar value.

This note sets out measurements from patent publication US20260265244A1, “HETEROCYCLIC COMPOUNDS AS STING ANTAGONISTS” (Boehringer Ingelheim International GmbH, priority 2022, published 2026).

One assay deals with T1, human STING WT (R232) (Homo sapiens, UniProt Q86WV6, H232R).
T1 construct: purchased Cisbio 64BDSTGPEG
The experiment in a line: Human STING HTRF binding assay (competitive, Cisbio 64BDSTGPEG). The method, boiled down: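 Competitive HTRF: 6His-tagged human STING WT R232 binding domain (residues 138-379) with anti-6His Cryptate antibody and d2-labeled STING ligand, 180 min at room temperature, 1% DMSO, 8 concentrations from 10 μM or 1 μM top in ~1:5 steps. HTRF ratios were calibrated to a cGAMP standard curve and IC50 obtained by 4-parameter logistic fit.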
For orientation: Time-resolved FRET reads energy transfer from a long-lived donor to a nearby acceptor.

For assay [1], the system named is STING inhibition in human whole blood (IFNα2α production). The assay can be described thus: Human whole blood assay (HWBA): cGAMP-stimulated IFNα2α production. It counts as cell-based. Particulars: Homo sapiens. The method, boiled down: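 Na-citrate human whole blood from ≥3 healthy donors, preincubated 60 min at room temperature with compound (8 concentrations, top 10 μM, ~1:5 steps, 0.1% DMSO), then stimulated with cGAMP and incubated 22 h at 37 °C. Plasma IFNα2α measured by MSD immunoassay; % control versus stimulated/unstimulated wells, IC50 by 4-parameter logistic fit.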

T1 sequence (Q86WV6 138-379 H232R): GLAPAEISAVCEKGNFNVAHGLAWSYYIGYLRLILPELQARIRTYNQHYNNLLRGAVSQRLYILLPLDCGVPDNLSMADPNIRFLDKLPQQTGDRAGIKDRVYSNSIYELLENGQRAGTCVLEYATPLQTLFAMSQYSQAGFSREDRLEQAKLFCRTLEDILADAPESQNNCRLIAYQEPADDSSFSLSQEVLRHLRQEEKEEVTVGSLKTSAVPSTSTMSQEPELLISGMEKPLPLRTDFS

In the case of `Cc1nc2nn(CC#N)cc2cc1-n1nc(-c2cccc3nn(C[C@H](O)c4ccccc4)cc23)c(C(C)C)c1C` [Example 98, 2-[5-(3-{2-[(2R)-2-hydroxy-2-phenylethyl]-2H-indazol-4-yl}-5-methyl-4-(propan-2-yl)-1H-pyrazol-1-yl)-6-methyl-2H-pyrazolo[3,4-b]pyridin-2-yl]acetonitrile], the pIC50 at human STING WT (R232) is 8.51; in assay [1], 7.51.

As for `CCc1nc2nn(C)cc2cc1-c1nc(-c2cccc3nn(C[C@H](F)c4ccccc4)cc23)c(C2CC2)n1C` [Example 107, 4-(5-cyclopropyl-2-{6-ethyl-2-methyl-2H-pyrazolo[3,4-b]pyridin-5-yl}-1-methyl-1H-imidazol-4-yl)-2-[(2R)-2-fluoro-2-phenylethyl]-2H-indazole], the figures for the pIC50 (at human STING WT (R232); in assay [1]) were 8.42 and 7.51, respectively.

For `CCCc1nc2nn(C)cc2cc1-n1nc(-c2cccc3nn(C[C@H](O)c4ccccc4)cc23)c(C(C)C)c1C` [Example 60, (1R)-2-[4-(5-methyl-1-{2-methyl-6-propyl-2H-pyrazolo[3,4-b]pyridin-5-yl}-4-(propan-2-yl)-1H-pyrazol-3-yl)-2H-indazol-2-yl]-1-phenylethan-1-ol], the figures for the pIC50 (at human STING WT (R232); in assay [1]) were 7.62 and 6.62, respectively.

On to `CNCc1nc2nn(C)cc2cc1-n1nc(-c2cccc3nn(C[C@H](O)c4ccccc4)cc23)c(C(C)C)c1C` [Example 42, (1R)-2-[4-(5-methyl-1-{2-methyl-6-[(methylamino)methyl]-2H-pyrazolo[3,4-b]pyridin-5-yl}-4-(propan-2-yl)-1H-pyrazol-3-yl)-2H-indazol-2-yl]-1-phenylethan-1-ol], for which the pIC50 at human STING WT (R232) is 7.78; in assay [1] it was 6.85.

On to `CC(C)c1c(-c2cccc3nn(C[C@H](O)c4ccccc4)cc23)nc(-c2cc3cn(C)nc3nc2C(F)(F)F)n1C` [Example 57, (1R)-2-(4-{1-methyl-2-[2-methyl-6-(trifluoromethyl)-2H-pyrazolo[3,4-b]pyridin-5-yl]-5-(propan-2-yl)-1H-imidazol-4-yl}-2H-indazol-2-yl)-1-phenylethan-1-ol], for which the pIC50 at human STING WT (R232) is 7.60; in assay [1] it was 6.64.

Turning to `Cc1c(C(C)C)c(-c2cccc3nn(C[C@H](O)c4ccccc4)cc23)nn1-c1cc2cn(C)nc2nc1CC1CC1` [Example 54, (1R)-2-(4-{1-[6-(cyclopropylmethyl)-2-methyl-2H-pyrazolo[3,4-b]pyridin-5-yl]-5-methyl-4-(propan-2-yl)-1H-pyrazol-3-yl}-2H-indazol-2-yl)-1-phenylethan-1-ol], the pIC50 was 7.06 at human STING WT (R232) and 6.70 in assay [1].

For the molecule `Cc1nc2nn(C3CCOC3)cc2cc1-n1nc(-c2cccc3nn(C[C@H](O)c4ccccc4)cc23)c(C(C)C)c1C` (stereo partly drawn) [Example 14, (1R)-2-(4-{5-methyl-1-[6-methyl-2-(oxolan-3-yl)-2H-pyrazolo[3,4-b]pyridin-5-yl]-4-(propan-2-yl)-1H-pyrazol-3-yl}-2H-indazol-2-yl)-1-phenylethan-1-ol], the figures for the pIC50 (on human STING WT (R232); in assay [1]) were 8.04 and 7.12, respectively.

Turning to `CC(C)n1cc2cc(-c3nc(-c4cccc5nn(C[C@H](O)c6ccccc6)cc45)c(C4CC4)n3C)c(C3CC3)nc2n1` [Example 33, (1R)-2-(4-{5-cyclopropyl-2-[6-cyclopropyl-2-(propan-2-yl)-2H-pyrazolo[3,4-b]pyridin-5-yl]-1-methyl-1H-imidazol-4-yl}-2H-indazol-2-yl)-1-phenylethan-1-ol], the pIC50 at human STING WT (R232) was 8.21; in assay [1] it was 6.96.

Regarding `CC(C)c1c(-c2cccc3nn(C[C@H](O)c4ccccc4)cc23)nc(-c2cc3cn(C)nc3cc2OC(F)(F)F)n1C` [Example 109, (1R)-2-(4-{1-methyl-2-[2-methyl-6-(trifluoromethoxy)-2H-indazol-5-yl]-5-(propan-2-yl)-1H-imidazol-4-yl}-2H-indazol-2-yl)-1-phenylethan-1-ol], the pIC50 was 7.73 on human STING WT (R232) and 7.11 in assay [1].

On to `CO[C@@H](Cn1cc2c(-c3nn(-c4cc5cn(C)nc5nc4C)c(C)c3C(C)C)cccc2n1)c1ccccc1` [Example 52, 4-(1-{2,6-dimethyl-2H-pyrazolo[3,4-b]pyridin-5-yl}-5-methyl-4-(propan-2-yl)-1H-pyrazol-3-yl)-2-[(2R)-2-methoxy-2-phenylethyl]-2H-indazole], for which the results for the pIC50 (on human STING WT (R232); in assay [1]) were 7.70 and 6.74, respectively.

In the case of `Cc1c(C(C)C)c(-c2cccc3nn(C[C@H](O)c4ccccc4)cc23)nn1-c1cc2cn(C)nc2nc1CN1CCOCC1` [Example 26, (1R)-2-[4-(5-methyl-1-{2-methyl-6-[(morpholin-4-yl)methyl]-2H-pyrazolo[3,4-b]pyridin-5-yl}-4-(propan-2-yl)-1H-pyrazol-3-yl)-2H-indazol-2-yl]-1-phenylethan-1-ol], the results for the pIC50 (at human STING WT (R232); in assay [1]) were 7.37 and 6.96, respectively.

Turning to `Cn1cc2cc(-c3nc(-c4cccc5nn(C[C@H](O)c6ccc(O)cc6)cc45)c(C4CC4)n3C)c(C3CC3)nc2n1` [Example 55, 4-[(1R)-2-[4-(5-cyclopropyl-2-{6-cyclopropyl-2-methyl-2H-pyrazolo[3,4-b]pyridin-5-yl}-1-methyl-1H-imidazol-4-yl)-2H-indazol-2-yl]-1-hydroxyethyl]phenol], the pIC50 at human STING WT (R232) was 8.43; in assay [1] it was 6.70.

As to `Cc1nc2nn(C)cc2cc1-n1nc(-c2cccc3nn(C[C@H](OCF)c4ccccc4)cc23)c(C(C)C)c1C` [Example 27, 4-(1-{2,6-dimethyl-2H-pyrazolo[3,4-b]pyridin-5-yl}-5-methyl-4-(propan-2-yl)-1H-pyrazol-3-yl)-2-[(2R)-2-(fluoromethoxy)-2-phenylethyl]-2H-indazole], the pIC50 at human STING WT (R232) was 7.84; in assay [1] it was 6.96.

Consider `COC(C)c1nc2nn(C)cc2cc1-n1nc(-c2cccc3nn(C[C@H](O)c4ccccc4)cc23)c(C(C)C)c1C` (stereo partly drawn) [Example 58, (1R)-2-(4-{1-[6-(1-methoxyethyl)-2-methyl-2H-pyrazolo[3,4-b]pyridin-5-yl]-5-methyl-4-(propan-2-yl)-1H-pyrazol-3-yl}-2H-indazol-2-yl)-1-phenylethan-1-ol], for which the pIC50 on human STING WT (R232) was 7.80; in assay [1], 6.64.

In the case of `CCc1nc2nn(C)cc2cc1-c1nc(-c2cccc3nn(C[C@H](F)c4ccc(Cl)cc4)cc23)c(C2CC2)n1C` [Example 72, 2-[(2R)-2-(4-chlorophenyl)-2-fluoroethyl]-4-(5-cyclopropyl-2-{6-ethyl-2-methyl-2H-pyrazolo[3,4-b]pyridin-5-yl}-1-methyl-1H-imidazol-4-yl)-2H-indazole], the pIC50 at human STING WT (R232) is 7.75; in assay [1] it was 6.40.

As to `Cc1c(C(C)C)c(-c2cccc3nn(C[C@H](O)c4ccccc4)cc23)nn1-c1cc2cn(C)nc2nc1C1(F)CC1` [Example 51, (1R)-2-(4-{1-[6-(1-fluorocyclopropyl)-2-methyl-2H-pyrazolo[3,4-b]pyridin-5-yl]-5-methyl-4-(propan-2-yl)-1H-pyrazol-3-yl}-2H-indazol-2-yl)-1-phenylethan-1-ol], the pIC50 is 7.77 on human STING WT (R232) and 6.77 in assay [1].

As for `Cc1c(C(C)C)c(-c2cccc3nn(C[C@H](O)c4ccccc4)cc23)nn1-c1cc2cn(C)nc2nc1C1CCCO1` (stereo partly drawn) [Example 13, (1R)-2-(4-{5-methyl-1-[2-methyl-6-(oxolan-2-yl)-2H-pyrazolo[3,4-b]pyridin-5-yl]-4-(propan-2-yl)-1H-pyrazol-3-yl}-2H-indazol-2-yl)-1-phenylethan-1-ol], the negative-log IC50 (pIC50) was 7.76 at human STING WT (R232) and 7.14 in assay [1].

With `Cc1c(C2CC2)c(-c2c(F)ccc3nn(C[C@H](O)c4ccccc4)cc23)nn1-c1cc2cn(C)nc2nc1C1CC1` [Example 35, (1R)-2-[4-(4-cyclopropyl-1-{6-cyclopropyl-2-methyl-2H-pyrazolo[3,4-b]pyridin-5-yl}-5-methyl-1H-pyrazol-3-yl)-5-fluoro-2H-indazol-2-yl]-1-phenylethan-1-ol], the pIC50 at human STING WT (R232) was 7.71; in assay [1] it was 6.89.

For the molecule `Cc1nc2nn(C)cc2cc1-n1nc(-c2cccc3nn(C[C@H](OCCCCO)c4ccccc4)cc23)c(C(C)C)c1C` [Example 66, 4-[(1R)-2-[4-(1-{2,6-dimethyl-2H-pyrazolo[3,4-b]pyridin-5-yl}-5-methyl-4-(propan-2-yl)-1H-pyrazol-3-yl)-2H-indazol-2-yl]-1-phenylethoxy]butan-1-ol], the pIC50 on human STING WT (R232) is 8.10; in assay [1], 6.49.

`Cc1nc2nn(CC(O)CN3CCN(C)CC3)cc2cc1-n1nc(-c2cccc3nn(C[C@H](O)c4ccccc4)cc23)c(C(C)C)c1C` (stereo partly drawn) [Example 70, 1-[5-(3-{2-[(2R)-2-hydroxy-2-phenylethyl]-2H-indazol-4-yl}-5-methyl-4-(propan-2-yl)-1H-pyrazol-1-yl)-6-methyl-2H-pyrazolo[3,4-b]pyridin-2-yl]-3-(4-methylpiperazin-1-yl)propan-2-ol]: the values for the pIC50 (at human STING WT (R232); in assay [1]) were 7.42 and 6.43, respectively.

`Cc1nc2nn(CC(O)CO)cc2cc1-n1nc(-c2cccc3nn(C[C@H](O)c4ccccc4)cc23)c(C(C)C)c1C` (stereo partly drawn) [Example 67, 3-[5-(3-{2-[(2R)-2-hydroxy-2-phenylethyl]-2H-indazol-4-yl}-5-methyl-4-(propan-2-yl)-1H-pyrazol-1-yl)-6-methyl-2H-pyrazolo[3,4-b]pyridin-2-yl]propane-1,2-diol]: the pIC50 at human STING WT (R232) was 7.97; in assay [1], 6.48.

As to `Cc1nc2cc(C)c(-n3nc(-c4cccc5nn(C[C@H](O)c6ccccc6)cc45)c(C(C)C)c3C)cc2[nH]1` [Example 105, (1R)-2-{4-[1-(2,5-dimethyl-1H-1,3-benzodiazol-6-yl)-5-methyl-4-(propan-2-yl)-1H-pyrazol-3-yl]-2H-indazol-2-yl}-1-phenylethan-1-ol], the pIC50 on human STING WT (R232) was 7.11; in assay [1], 5.80.

One may read the pIC50 as −log10 of the IC50, conventionally taken in molar units. Read a low pIC50 as a large IC50.
